Source: patent US9428496B2, “Thiazolamine derivative and use thereof as anti-picornaviral infection medicament” (Institute of Pharmacology and Toxicology Academy of …, priority 2010, dated 2016)
Values after ≈ are worked out from the molar mass of the structure shown. Where two headings read alike, the source gives them in different places.

Assays:
enterovirus Cox A16 = test: microbe, parasite or virus in culture; format: cell-based; settings: for IC50: Enterovirus, read-out: CoxA16 IC50; for CoxA16 SI: CoxA16, Vero cells
Description: (§1) Anti-picornaviral activity of the compounds of the present invention in in vitro model Test item: activity screening of compounds against enteroviruses EV71 and Cox A16 Test principle: using Vero cells as virus host, the cytopathic effect of Vero cells induced by the inhibition of compounds against enteroviruses EV71 and Cox A16 was measured.
(§2) 1. Virus strains: enteroviruses EV71 (Shenzhen 98) and Cox A16, passaging in the laboratory.
(§3) Test Method: Vero cells were incubated in a 96-well culture plate. After 24 hours, they were infected with EV71 and Cox A16 by adsorption for 2 hours. After discarding the virus solution, maintenance solutions containing different concentrations of samples and positive controls were added, and, at the same time, cell control wells and virus control wells were set. […] The half inhibitory concentrations (IC50) of the samples against EV71 and Cox A16 were respectively calculated according to the Reed-Muench method.

Vero cells = test: Toxicity of compounds to the Vero host cells (TC50, TC0); format: cell-based
[1] = test system: enterovirus EV71 (Shenzhen 98); test: Inhibition of cytopathic effect (CPE) induced by EV71 in Vero cells; format: cell-based; settings: for IC50 / EV71 IC50: CPE in Vero cells, Reed-Muench method; for EV71 SI: EV71, Vero cells
Description: as §1, §2, §3

[2] = CPE in Vero cells, Reed-Muench method

CC(C)c1ccc(OCCCCCN2CCN(c3nccs3)CC2)cc1 [Example 5, 2-{4-[5-(4-isopropylphenoxy)pentyl]piperazin-1-yl}thiazole]
IC50 (enterovirus Cox A16; [2]): 1.57 µg/mL (≈ 4.2 µM) | CoxA16 SI (enterovirus Cox A16): 4.0 | melting point: 128 to 130 °C | TC0 (Vero cells; Vero cells): 3.13 µg/mL | TC50 (Vero cells; Vero cells): 6.25 µg/mL (≈ 16.7 µM) | IC50 [1]: > 3.13 µg/mL

Cl.c1ccc(OCCCCCN2CCN(c3nccs3)CC2)cc1 [Example 19, 2-[4-(5-phenoxypentyl)piperazin-1-yl]thiazole hydrochloride]
IC50 (enterovirus Cox A16; [2]): 12.5 µg/mL | CoxA16 SI (enterovirus Cox A16): 6.3 | melting point: 145 to 147 °C | TC0 (Vero cells; Vero cells): 12.5 µg/mL | TC50 (Vero cells; Vero cells): 79.37 µg/mL | IC50 [1]: > 12.5 µg/mL

COc1ccc(OCCCCCN2CCN(c3nccs3)CC2)cc1 [Example 1, 2-{4-[5-(4-methoxyphenoxy)pentyl]piperazin-1-yl}thiazole]
IC50 (enterovirus Cox A16; [2]): 25 µg/mL (≈ 69.2 µM) | CoxA16 SI (enterovirus Cox A16): 4.0 | melting point: 83 to 85 °C | TC0 (Vero cells; Vero cells): 50.0 µg/mL | TC50 (Vero cells; Vero cells): 100.0 µg/mL (≈ 277 µM) | IC50 [1]: 36.3 µg/mL (≈ 100 µM) | EV71 SI [1]: 2.8

Fc1ccc(OCCCCCN2CCN(c3nccs3)CC2)cc1 [Example 3, 2-{4-[5-(4-fluorophenoxy)pentyl]piperazin-1-yl}thiazole]
IC50 (enterovirus Cox A16; [2]): > 12.5 µg/mL | melting point: 42 to 44 °C | TC0 (Vero cells; Vero cells): 12.5 µg/mL | TC50 (Vero cells; Vero cells): 79.37 µg/mL (≈ 227 µM) | IC50 [1]: > 12.5 µg/mL

CCc1ccc(OCCCCCN2CCN(c3nccs3)CC2)cc1 [Example 4, 2-{4-[5-(4-ethylphenoxy)pentyl]piperazin-1-yl}thiazole]
IC50 (enterovirus Cox A16; [2]): 1.97 µg/mL (≈ 5.48 µM) | CoxA16 SI (enterovirus Cox A16): 6.3 | melting point: 125 to 127 °C | TC0 (Vero cells; Vero cells): 3.13 µg/mL | TC50 (Vero cells; Vero cells): 12.5 µg/mL (≈ 34.8 µM) | IC50 [1]: > 3.13 µg/mL

Cc1ccc(OCCCCCN2CCN(c3nccs3)CC2)cc1 [Example 7, 2-{4-[5-(4-methylphenoxy)pentyl]piperazin-1-yl}thiazole]
IC50 (enterovirus Cox A16; [2]): > 3.13 µg/mL | melting point: 125 to 127 °C | TC0 (Vero cells; Vero cells): 3.13 µg/mL | TC50 (Vero cells; Vero cells): 19.84 µg/mL (≈ 57.4 µM) | IC50 [1]: > 3.13 µg/mL

CCOc1ccc(OCCCCCCN2CCN(c3nccs3)CC2)cc1.Cl [Example 21, 2-{4-[6-(4-ethoxyphenoxy)hexyl]piperazin-1-yl}thiazole hydrochloride]
IC50 (enterovirus Cox A16; [2]): 3.13 µg/mL | CoxA16 SI (enterovirus Cox A16): 8.0 | melting point: 222 to 224 °C | TC0 (Vero cells; Vero cells): 3.13 µg/mL | TC50 (Vero cells; Vero cells): 25.0 µg/mL | IC50 [1]: 1.97 µg/mL | EV71 SI [1]: 12.7

CCc1ccc(OCCCCCCN2CCN(c3nccs3)CC2)cc1 [Example 9, 2-{4-[6-(4-ethylphenoxy)hexyl]piperazin-1-yl}thiazole]
IC50 (enterovirus Cox A16; [2]): 3.13 µg/mL (≈ 8.38 µM) | CoxA16 SI (enterovirus Cox A16): 2.0 | melting point: 21 to 23 °C | TC0 (Vero cells; Vero cells): 3.13 µg/mL | TC50 (Vero cells; Vero cells): 6.25 µg/mL (≈ 16.7 µM) | IC50 [1]: 1.97 µg/mL (≈ 5.27 µM) | EV71 SI [1]: 3.2

COc1ccc(OCCCCCCN2CCN(c3nccs3)CC2)cc1.Cl [Example 20, 2-{4-[6-(4-methoxyphenoxy)hexyl]piperazin-1-yl}thiazole hydrochloride]
IC50 (enterovirus Cox A16; [2]): > 3.13 µg/mL | melting point: 221 to 223 °C | TC0 (Vero cells; Vero cells): 3.13 µg/mL | TC50 (Vero cells; Vero cells): 63.0 µg/mL | IC50 [1]: > 3.13 µg/mL

Brc1ccc(OCCCCCCN2CCN(c3nccs3)CC2)cc1 [Example 14, 2-{4-[6-(4-bromophenoxy)hexyl]piperazin-1-yl}thiazole]
IC50 (enterovirus Cox A16; [2]): 6.25 µg/mL (≈ 14.7 µM) | CoxA16 SI (enterovirus Cox A16): 5.0 | melting point: 66 to 68 °C | TC0 (Vero cells; Vero cells): 12.5 µg/mL | TC50 (Vero cells; Vero cells): 31.5 µg/mL (≈ 74.2 µM) | IC50 [1]: > 12.5 µg/mL

c1ccc(OCCCCCCN2CCN(c3nccs3)CC2)cc1 [Example 10, 2-[4-(6-phenoxyhexyl)piperazin-1-yl]thiazole]
IC50 (enterovirus Cox A16; [2]): 12.5 µg/mL (≈ 36.2 µM) | CoxA16 SI (enterovirus Cox A16): 2.0 | melting point: 37 to 39 °C | TC0 (Vero cells; Vero cells): 12.5 µg/mL | TC50 (Vero cells; Vero cells): 25.0 µg/mL (≈ 72.4 µM) | IC50 [1]: > 12.5 µg/mL

Brc1ccc(OCCCCCN2CCN(c3nccs3)CC2)cc1.Cl [Example 18, 2-{4-[5-(4-bromophenoxy)pentyl]piperazin-1-yl}thiazole hydrochloride]
IC50 (enterovirus Cox A16; [2]): > 0.78 µg/mL | melting point: 221 to 223 °C | TC0 (Vero cells; Vero cells): 0.78 µg/mL | TC50 (Vero cells; Vero cells): 4.96 µg/mL | IC50 [1]: > 0.78 µg/mL

2-{4-[5-(4-tert-butylphenoxy)pentyl]piperazin-1-yl}thiazole hydrochloride [Example 22]
CoxA16 IC50 (enterovirus Cox A16; [2]): 6.25 µg/mL | CoxA16 SI (enterovirus Cox A16): 4.0 | TC0 (Vero cells): 12.5 µg/mL | TC50 (Vero cells): 25.0 µg/mL | EV71 IC50 [1]: 1.97 µg/mL | EV71 SI [1]: 12.7

Cc1ccc(OCCCCCCN2CCN(c3nccs3)CC2)cc1 [Example 8, 2-{4-[6-(4-methylphenoxy)hexyl]piperazin-1-yl}thiazole]
IC50 (enterovirus Cox A16; [2]): 4.96 µg/mL (≈ 13.8 µM) | CoxA16 SI (enterovirus Cox A16): 5.0 | melting point: 37 to 39 °C | TC0 (Vero cells; Vero cells): 12.5 µg/mL | TC50 (Vero cells; Vero cells): 25.0 µg/mL (≈ 69.5 µM) | IC50 [1]: > 12.5 µg/mL

CCOc1ccc(OCCCCCN2CCN(c3nccs3)CC2)cc1 [Example 2, 2-{4-[5-(4-ethoxyphenoxy)pentyl]piperazin-1-yl}thiazole]
IC50 (enterovirus Cox A16; [2]): 1.97 µg/mL (≈ 5.25 µM) | CoxA16 SI (enterovirus Cox A16): 12.7 | melting point: 79 to 81 °C | TC0 (Vero cells; Vero cells): 12.5 µg/mL | TC50 (Vero cells; Vero cells): 25.0 µg/mL (≈ 66.6 µM) | IC50 [1]: 7.87 µg/mL (≈ 21 µM) | EV71 SI [1]: 3.2

5-{4-[3-(4′-ethoxybiphenyl-4-oxy)pentyl]piperazin-1-yl}thiazole [Example 15]
CoxA16 IC50 (enterovirus Cox A16; [2]): 100 µg/mL | CoxA16 SI (enterovirus Cox A16): >2.0 | TC0 (Vero cells): >200.0 µg/mL | TC50 (Vero cells): >200.0 µg/mL | EV71 IC50 [1]: >200.0 µg/mL

2-{4-[5-(4-tert-butylphenoxy)pentyl]piperazin-1-yl}thiazole [Example 16]
CoxA16 IC50 (enterovirus Cox A16; [2]): 4.30 µg/mL | CoxA16 SI (enterovirus Cox A16): 5.8 | TC0 (Vero cells; Vero cells): 12.5 µg/mL | TC50 (Vero cells; Vero cells): 25.0 µg/mL | EV71 IC50 [1]: >12.5 µg/mL

CC(C)c1ccc(OCCCCCCN2CCN(c3nccs3)CC2)cc1.Cl [Example 23, 2-{4-[6-(4-isopropylphenoxy)hexyl]piperazin-1-yl}thiazole hydrochloride]
IC50 (enterovirus Cox A16; [2]): 0.57 µg/mL | CoxA16 SI (enterovirus Cox A16): 34.8 | melting point: 135 to 137 °C | TC0 (Vero cells; Vero cells): 3.13 µg/mL | TC50 (Vero cells; Vero cells): 19.84 µg/mL | IC50 [1]: 1.97 µg/mL | EV71 SI [1]: 10.1

Fc1ccc(OCCCCCCN2CCN(c3nccs3)CC2)cc1 [Example 12, 2-{4-[6-(4-fluorophenoxy)hexyl]piperazin-1-yl}thiazole]
IC50 (enterovirus Cox A16; [2]): > 12.5 µg/mL | melting point: 58 to 60 °C | TC0 (Vero cells; Vero cells): 12.5 µg/mL | TC50 (Vero cells; Vero cells): 25.0 µg/mL (≈ 68.8 µM) | IC50 [1]: > 12.5 µg/mL

2-{4-[5-(4-tert-butylphenoxy)pentyl]piperazin-1-yl}thiazole [Example 13]
CoxA16 IC50 (enterovirus Cox A16; [2]): 7.87 µg/mL | CoxA16 SI (enterovirus Cox A16): 3.2 | TC0 (Vero cells; Vero cells): 12.5 µg/mL | TC50 (Vero cells; Vero cells): 25.0 µg/mL | EV71 IC50 [1]: >12.5 µg/mL

CC(C)(C)c1ccc(OCCCCCCN2CCN(c3nccs3)CC2)cc1 [Example 11, 2-{4-[6-(4-tert-butylphenoxy)hexyl]piperazin-1-yl}thiazole]
IC50 (enterovirus Cox A16; [2]): 3.13 µg/mL (≈ 7.79 µM) | CoxA16 SI (enterovirus Cox A16): 2.0 | melting point: 30 to 32 °C | TC0 (Vero cells; Vero cells): 3.13 µg/mL | TC50 (Vero cells; Vero cells): 6.25 µg/mL (≈ 15.6 µM) | IC50 [1]: 1.57 µg/mL (≈ 3.91 µM) | EV71 SI [1]: 4.0

Brc1ccc(OCCCCCN2CCN(c3nccs3)CC2)cc1 [Example 17, 2-{4-[5-(4-bromophenoxy)pentyl]piperazin-1-yl}thiazole]
IC50 (enterovirus Cox A16; [2]): > 0.78 µg/mL | melting point: 73 to 75 °C | TC0 (Vero cells; Vero cells): 0.78 µg/mL | TC50 (Vero cells; Vero cells): 4.96 µg/mL (≈ 12.1 µM) | IC50 [1]: > 0.78 µg/mL

NC(=O)c1ncn([C@@H]2O[C@H](CO)[C@@H](O)[C@H]2O)n1 [Con, ribavirin, reference compound]
IC50 (enterovirus Cox A16; Vero): 363 µg/mL (≈ 1490 µM) | TC0 (Vero cells; Vero cells): 500.0 µg/mL | TC50 (Vero cells; Vero cells): 2000 µg/mL (≈ 8190 µM) | IC50 [1]: 517 µg/mL (≈ 2120 µM)
